Measured values from paper PMC9146377, “Design and Synthesis of Novel Bis-Imidazolyl Phenyl Butadiyne Derivatives as HCV NS5A Inhibitors” (Pharmaceuticals, 2022).
Like-named read-outs stand apart in the source and are kept apart here.

Tests used:
[1] = Cytotoxicity assay (intracellular ATP levels), Table 4 Gt1a; assay type: cell-based; settings: human, Huh7-Lunet cells, HCV 1a (H77) full length
Protocol: (§1) Intracellular ATP levels were measured to determine the cytotoxicity of the compounds in the treated cells. In 96-well plates, 10^4 cells per well were seeded, incubated with serial dilutions of the compounds or DMSO as a control for 72 h at 37 °C (5% CO2) and lysed for ATP measurement. ATP levels were measured using the ViaLight HS BioAssay kit (Lonza, Basel, Switzerland) in a GloMax 20/20 single-tube luminometer (Promega) for 1 s, according to the manufacturer’s protocol. Values were normalized to total protein amounts and used to determine the compound concentration causing 50% cell death (CC50). Nonlinear regression analysis was performed using Prism 5.0 software (GraphPad Software Inc., San Diego, CA, USA).

[2] = Cytotoxicity assay (intracellular ATP levels) in Huh5-2 replicon cells; assay type: cell-based; settings: human, Huh5-2 cells, read-out: HCV Replicon 1b CC50
Protocol: (§2) All synthesized compounds were tested against HCV genotype 1b Con-1 subgenomic replicon in the Huh-5-2 stable cell line. Specifically, their activity against viral replication was estimated by measuring firefly luciferase, which is co-expressed by the bicistronic replicon, and their half-maximal effective concentrations (EC50) were determined. In parallel, the half-maximal cytotoxic concentrations (CC50) of the compounds were estimated, and their selective indexes (SI50: CC50/ EC50) were calculated. All novel synthesized compounds were active against HCV 1b with EC50 < 1 µM except for compound 4b (Table 3).
as §1

[3] = system: subgenomic replicon of HCV GT 3a (strain S52); experiment: Anti-HCV luciferase assay, genotype 3a replicon in Huh7.5-3a cells; assay type: cell-based; settings: Hepatitis C virus, GT3A, read-out: Gt3a EC50
Protocol: Specifically, we determined the activity of 10a against viral replication by measuring luciferase activity in Huh7-JFH1, Huh7.5-3a, and Huh7.5-4a stable cell lines containing subgenomic replicons of HCV GT 2a (strain JFH1), GT 3a (strain S52) and GT 4a (strain ED43), respectively. In addition, the activity of 10a was determined in Huh7-Lunet cells electroporated with the in vitro transcribed full-length reporter viral RNA of HCV genotype 1a (strain H77S.3). […]
The anti-HCV assay in replicon cells was performed by seeding 1 × 10^4 cells per well in a 96-well plate. […] Cells were lysed after 72 h, and F-Luc activity was measured. […] At 72 h post-treatment, cell supernatants were collected, and G-Luc activity was measured. In addition, the cells were lysed for total protein quantification.
Relative luminescence units (RLU) were expressed as a percentage of the respective units derived from DMSO-treated cells (control). […]
The F-Luc activity was measured using the Luciferase Assay System (Promega, Madison, WI, USA), as recommended by the manufacturer. The G-Luc activity was measured using 12 μM coelenterazine (Promega) in assay buffer (50 mM potassium phosphate, pH 7.4, 500 mM NaCl, 1 mM EDTA). […] The F-Luc activity was normalized to the total protein amount determined using the Bradford assay reagent (Pierce, Waltham, MA, USA).

[4] = system: HCV genotype 1b Con-1 subgenomic replicon; experiment: Anti-HCV luciferase assay, genotype 1b (Con1) subgenomic replicon in Huh5-2 cells; assay type: cell-based, Hepatitis C virus; settings: mean of three experiments
Protocol: as §2
Huh5-2 [65] and Huh7-JFH1 [66] stable cell lines harbor the subgenomic HCV reporter replicon I389luc-ubi-neo/NS3-3′/Con1/5.1 (genotype 1b; strain Con1) and I389luc-ubi-neo/NS3-3′_dg_JFH1 (genotype 2a, JFH1 strain), respectively (kindly provided by R. Bartenschlager, Heidelberg University, Heidelberg, Germany). Huh7.5-3a and Huh7.5-4a stable cell lines harbor the subgenomic HCV reporter replicon S52-SG (Feo) (AII) (genotype 3a; S52 strain) and ED43-SG (Feo) (VYG) (genotype 4a; ED43 strain), respectively (viral constructs kindly provided by C.M. Rice, Rockefeller University, New York, NY, USA). These replicons carry as a first cistron firefly luciferase (F-Luc) and neomycin phosphotransferase genes under the translational control of the HCV internal ribosome entry site (IRES), followed by HCV NS3 to NS5B proteins under the control of the EMCV IRES.
The anti-HCV assay in replicon cells was performed by seeding 1 × 10^4 cells per well in a 96-well plate. After 24 h of incubation at 37 °C (5% CO2) and medium removal, serial dilutions of the test compounds in complete DMEM were added. Cells were lysed after 72 h, and F-Luc activity was measured. The anti-HCV assay for the full-length viral construct H77S.3/GLuc2A was performed after electroporation of Huh7-Lunet cells with viral RNA. Cells were seeded in 96-well plates, the medium was removed 24 h after electroporation, and serial dilutions of the compounds in complete DMEM were added. At 72 h post-treatment, cell supernatants were collected, and G-Luc activity was measured. In addition, the cells were lysed for total protein quantification.
Relative luminescence units (RLU) were expressed as a percentage of the respective units derived from DMSO-treated cells (control). The half-maximal effective concentration (EC50), defined as the concentration of compound that reduces luciferase signal by 50%, was calculated by dose-response curve analysis using Prism 5.0 software (GraphPad Software Inc., San Diego, CA, USA).
The F-Luc activity was measured using the Luciferase Assay System (Promega, Madison, WI, USA), as recommended by the manufacturer. The G-Luc activity was measured using 12 μM coelenterazine (Promega) in assay buffer (50 mM potassium phosphate, pH 7.4, 500 mM NaCl, 1 mM EDTA). Measurements were carried out using a GloMax 20/20 single tube luminometer (Promega) for 10 s. The F-Luc activity was normalized to the total protein amount determined using the Bradford assay reagent (Pierce, Waltham, MA, USA).

[5] = system: HCV genotype 1a (strain H77S.3) full-length reporter viral RNA; experiment: microbe, parasite or virus in culture; assay type: cell-based, Hepatitis C virus

For `COC(=O)N[C@@H](C(=O)N1CCC[C@H]1c1ncc(-c2cccc(C#CC#Cc3cccc(-c4cnc([C@@H]5CCCN5C(=O)[C@H](NC(=O)OC)c5ccccc5)[nH]4)c3)c2)[nH]1)c1ccccc1` [Compound 10a, Dimethyl ((1R,1′R)-((2S,2′S)-((buta-1,3-diyne-1,4-diylbis(3,1-phenylene))bis(1H-imidazole-5,2-diyl))bis(pyrrolidine-2,1-diyl))bis(2-oxo-1-phenylethane-2,1-diyl))dicarbamate], which CC50 at 72 h [1] is on record?
Its CC50 at 72 h is over 100 µM.

What about the CC50 at 72 h [2] of the same compound?
Its CC50 at 72 h is over 100 µM.

What about the EC50 [3] of the same compound?
Its EC50 is 0.128 µM.

What about the EC50 ([4]; Hepatitis C virus, Huh-5-2, 72 h, read-out: HCV Replicon 1b EC50, Huh5-2 cells, Con1 strain, F-Luc, 72 h) of the same compound?
The EC50 was 0.0001 µM.

What about the EC50 ([4]; Huh5-2 cells, Con1 strain, F-Luc, 72 h, read-out: HCV Replicon 1b EC50) of the same compound?
Its EC50 is 0.0001 µM.

What about the “Gt1a SI” value ([5]; HCV 1a (H77) full length) of the same compound?
Its value is over 2792.52.

And the EC50 ([5]; Hepatitis C virus, Huh-7, 72 h, read-out: Gt1a EC50)?
Its EC50 is 0.0358 µM.
